Results on three compounds are retold here after PMC10102027, “Helquat dyes targeting G-quadruplexes as a new class of anti-HIV-1 inhibitors” (Scientific Reports, 2023).

A value given as a limit tells only on which side of the number the result lay.

System in the first data set: not listed separately
The data set can be described thus: in vitro. It is filed as cell-based. The settings on record: human. An excerpt:
(§1) Based on a facile [2 + 2 + 2]‐cycloisomerization strategy, a robust three‐step synthetic entry into a novel family of helical extended diquats (helquats) was developed. After a straightforward Knoevenagel condensation of the respective helquat parent with different aldehydes (Fig. 2A), more than 500 helquat-based compounds were synthesized and screened for anti-HIV-1 activity in an assay based on the inhibition of the virus-induced cytopathic effect in MT-4 cells, evaluated after 5 days post-infection by an XTT assay. In parallel with the screening, the XTT assay was also used to determine the cytotoxicity of all compounds (Fig. 2B; for more information on the synthesis and characterization of the compounds, see the Supplementary Information). […]
(§2) XTT screening. MT-4 cells were seeded in 80 µl of the RPMI without Phenol Red in the amount of 3x10^4 cells per well of a 96-well plate. 10 µl of tested compounds (500 µM at 5% DMSO) or controls (5% DMSO at PBS, AZT 1mM, SQV 100 µM) were added to the cells; after one-hour incubation at 37 °C, HIV-1 (NL4-3 strain) was added with MOI = 0.05 and the infected cells were cultivated for five days.
The viability of the cells was measured by the XTT cell viability and proliferation assay. Briefly, 50 µl of the XTT solution with the addition of PMS (both VWR) was added to the cultivation media and incubated in a humidified incubator maintained at 37 °C with 5% CO2 for four hours, after which absorbance at 560 nm was measured on a VICTOR plate reader (PerkinElmer).
The cytotoxicity of the tested compounds was evaluated separately without virus addition and analysed by the same assay.
(§3) For compounds selected as hits in the initial screening, the effective concentration that inhibits 50% of the viral activity (EC50) and the cytotoxic concentration that reduces the MT -4 cell viability by 50% (CC50) were determined. Viral activity was evaluated after five days as an HIV-1-induced cytopathic effect quantified by the XTT assay. Selected hits were tested at two-fold serial dilutions from 50 µM concentration, and the drug concentrations required to reduce the viral cytopathic effect by 50% (EC 50) as well as the drug concentrations that reduced MT-4 cell viability by 50% (CC50) were calculated by nonlinear regression using GraphPad Prism v.8.0.0 (GraphPad Software).
In turn, `Cn1cc(/C=C/c2cc(/C=C/c3cn(C)c4ccccc34)[n+]3c(c2)-c2c(ccc4c2-c2cccc[n+]2CCC4)CCC3)c2ccccc21` [Compound 12] gave a CC50 at 5 days above 50 µM.

In the case of `C(=C\c1cc(/C=C/c2ccc3c(c2)CCO3)[n+]2c(c1)-c1c(ccc3c1-c1cccc[n+]1CCC3)CCC2)/c1ccc2c(c1)CCO2` [Compound 14], the 50% cytotoxic concentration (CC50) at 5 days is above 50 µM.

The compound `COc1ccc2ccccc2c1/C=C/c1cc[n+]2c(c1)-c1c(c(C)c(C)c3c1-c1cc(/C=C/c4c(OC)ccc5ccccc45)cc[n+]1CC3)CC2` [Compound 15] came in with a CC50 at 5 days above 50 µM.

Another data set has as its system HIV-1. The data set can be described thus: Replication assay (RT activity in supernatant). It counts as cell-based. To be noted: 10 µM, compound added 1 h after infection of MT-4 cells, RT activity 5 days after infection. The procedure: To address virion binding and entry in a competitive setting, we performed an adsorption assay where test compounds and virions were added to MT-4 cells simultaneously and were washed out after 2 h of incubation. In parallel, we performed a replication assay where MT-4 cells were infected with HIV-1 and the tested compounds were added 1 h later. In both cases, the infection was evaluated by measuring reverse transcriptase activity in a cell-free supernatant 5 days after the infection (Fig. 3). As controls, PBS (phosphate-buffered saline) and inhibitors of different HIV-1 life-cycle steps were used: AMD (AMD3100), an inhibitor of gp120 attachment to CXCR4 receptors of the target cell, thus preventing HIV-1 adsorption and entry; AZT (azidothymidine), an inhibitor of reverse transcriptase; and RAL (raltegravir), an integrase inhibitor.
MT-4 cells were seeded in 80 µl of the Roswell Park Memorial Institute (RPMI) medium in the amount of 2 × 10^5 cells per well of a 96-well plate, and 10 µl of the virus stock were immediately added with the final multiplicity of infection (MOI) of 0.05. For a replication assay, the infected cells were incubated at 37 °C for 1 h before the addition of compounds being tested (10 µM final concentration) and subsequently cultivated at 37 °C for another 5 days. For an adsorption test, by contrast, the compounds (10 µM final concentration) were added simultaneously with the virus, and after 2 h of incubation, the cells were washed three times with PBS to remove the compounds and unbound virions; after the addition of 100 µl of the RPMI medium, the cells were cultivated at 37 °C for 5 days. Five days post-infection, aliquots of virus-containing cell-free supernatants were harvested and analysed by reverse transcriptase (RT) assay (described in the Supplementary Information). The experiments were performed as biological replicates where the sample size for each condition was n = 3.
RT assay. The reverse transcriptase (RT) activity in a cell-free supernatant was assessed by an α-32P RT assay. Briefly, the RT activity in the culture medium, which corresponded to the amount of HIV-1, was used to produce a DNA copy of an RNA template by extending a complementary oligo dT DNA primer with radiolabelled nucleotides. A reaction mixture containing 50 mM Tris-HCl pH 7.8, 75 mM KCl, 2 mM DTT, 5 mM MgCl2 and 0.5% NP-40 (all Sigma-Aldrich), 5 µg per ml of poly (rA)-poly (dT) (The Midlan Certified Reagent Company) with 1 µl 10-mCi/ml [α-32P]dTTP (American Radiolabeled Chemicals) per ml, and the tested sample was incubated at 37°C for two hours, after which 10 µl were spotted on DEAE blotting paper (PerkinElmer) and air-dried. After five washes with SSC buffer (0.15 M NaCl, 0.015 M sodium citrate) and three additional washes with 85% ethanol, the blotting paper was exposed to Phosphoscreen overnight, which was scanned on a Typhoon 9410 Phosphorimager instrument (GE Healthcare). The intensity of the dots was analysed by the ImageQuant software (GE Healthcare).
As for `Cn1cc(/C=C/c2cc(/C=C/c3cn(C)c4ccccc34)[n+]3c(c2)-c2c(ccc4c2-c2cccc[n+]2CCC4)CCC3)c2ccccc21` [Compound 12], the “effect on viral replication” value is reported as “significantly impairing viral replication”.

Regarding `C(=C\c1cc(/C=C/c2ccc3c(c2)CCO3)[n+]2c(c1)-c1c(ccc3c1-c1cccc[n+]1CCC3)CCC2)/c1ccc2c(c1)CCO2` [Compound 14], the “effect on viral replication” value was “significantly impairing viral replication”.

On to `COc1ccc2ccccc2c1/C=C/c1cc[n+]2c(c1)-c1c(c(C)c(C)c3c1-c1cc(/C=C/c4c(OC)ccc5ccccc45)cc[n+]1CC3)CC2` [Compound 15], for which the “effect on viral replication” value was “significantly impairing viral replication”.

For another data set, the system named is HIV-1 (NL4-3 strain). The data set can be described thus: CPE-based antiviral assay in HIV-1-infected MT-4 cells (XTT). It counts as cell-based. To be noted: Human immunodeficiency virus 1, NL43, MT4, 120 h, cytopathic effect-based assay, MT-4 cells infected by HIV-1 (NL4-3 strain), 5 days post-infection.
From the text: as §1, §2
The viability of the cells was measured by the XTT cell viability and proliferation assay. Briefly, 50 µl of the XTT solution with the addition of PMS (both VWR) was added to the cultivation media and incubated in a humidified incubator maintained at 37 °C with 5% CO2 for four hours, after which absorbance at 560 nm was measured on a VICTOR plate reader (PerkinElmer). […]
as §3
The compound `Cn1cc(/C=C/c2cc(/C=C/c3cn(C)c4ccccc34)[n+]3c(c2)-c2c(ccc4c2-c2cccc[n+]2CCC4)CCC3)c2ccccc21` [Compound 12] had an EC50 of 2.68 µM.

Compound `C(=C\c1cc(/C=C/c2ccc3c(c2)CCO3)[n+]2c(c1)-c1c(ccc3c1-c1cccc[n+]1CCC3)CCC2)/c1ccc2c(c1)CCO2` [Compound 14] showed an EC50 of 2.7 µM.

For the compound `COc1ccc2ccccc2c1/C=C/c1cc[n+]2c(c1)-c1c(c(C)c(C)c3c1-c1cc(/C=C/c4c(OC)ccc5ccccc45)cc[n+]1CC3)CC2` [Compound 15], the concentration for a half-maximal effect (EC50) was 2.74 µM.
